Laboratory results published in patent US11015061B2, “Phthalocyanine-based compound and uses of same” (YAMAMOTO CHEMICALS, INC., priority 2017, dated 2021).

Key:
Type in all cases: physicochemical
[1] = Absorption spectrum of toluene solution (maximum absorption, gram absorption coefficient); conditions: for gram absorption coefficient: at maximum absorption
Procedure: A toluene solution of the compound obtained in this way had maximum absorption at 734.0 nm, and the gram absorption coefficient thereof was 1.21×10^5 mL/g·cm. The absorption spectrum chart thereof is illustrated in FIG. 1.

[2] = Heat resistance test of laminated glass; conditions: 200 hours at 100° C., absorbance integrated 400 to 900 nm
Procedure: (§1) The phthalocyanine-based compound (Specific Example (1)-30) produced in Example 1 (0.013 g) was dissolved in 40 g of triethylene glycol-di-2-ethylhexanoate as an organic ester plasticizer. The obtained solution was added to 100 g of a polyvinyl butyral resin (trade name: BH-3, produced by SEKISUI CHEMICAL CO., LTD.), thoroughly melted and kneaded using a mixing roll, and extruded using an extruder, thereby obtaining an interlayer having a thickness of 0.76 mm.
(§2) The interlayer was cut in size of 100 mm×100 mm, interposed between heat ray absorbing glass plates (100 mm (length)×100 mm (width)×2.0 mm (thickness)) prepared based on JIS R3208, put into a rubber bag, and deaerated for 20 minutes at a degree of vacuum of 2.6 kPa. Then, the deaerated laminate was moved into an oven and further hold for 30 minutes at 90° C. to vacuum press. Thereafter, the laminate was compressed for 20 minutes in an autoclave under the condition of a temperature of 130° C. and a pressure of 1.3 MPa, thereby obtaining a laminated glass sample.
(§3) For a heat resistance test, the laminated glass used for measuring the spectrum before test as described above was treated with heat for 200 hours at a temperature of 100° C. in a thermostat (produced by Yamato Scientific co., ltd.: IG400). By using the spectrophotometer, the absorption spectrum of the heat-treated laminated glass was measured and adopted as a spectrum after heat resistance test.
(§4) In each of the spectra measured as above before and after the light fastness⋅heat resistance test, the values of absorbance within a range of 400 to 900 nm were integrated, and a difference between the integrated value before the light fastness⋅heat resistance test and the integrated value after the light fastness⋅heat resistance test was calculated.
(§5) The difference ΔE between the absorbance before the light fastness⋅heat resistance test and the absorbance after the light fastness⋅heat resistance test is expressed by the following equation. ΔE (%)={E(400 to 900 nm in E1)−E(400 to 900 nm in E2)}/E(400 to 900 nm in E1)×100
(§6) E1 represents the spectrum before test, E2 represents the spectrum after test, and Σ represents integration of values of absorbance. The larger the value of ΔE, the greater the spectrum change between before and after the light fastness⋅heat resistance test.

[3] = Solubility in organic solvent (cyclopentanone); conditions: about 10 wt % dispersion, room temperature, 0.2 μm filter; no residue = 10 wt % or more
Procedure: The solubility of the phthalocyanine compound with respect to cyclopentanone was measured by the following method.
Cyclopentanone was added to about 1 g of the phthalocyanine compound such that the total weight thereof became about 10 g, and the obtained solution was irradiated with ultrasonic waves for about 30 minutes and then stirred for 2 hours at room temperature, thereby preparing a dispersion liquid of about 10 wt %.
The dispersion liquid was filtered through a membrane filter (0.2 μm), the substance obtained by filtration was dried for 1 hour in a drier at 60° C., and then the weight of the substance obtained by filtration was measured.
The solubility of the phthalocyanine compound in a solvent is expressed by the following equation. Solubility (wt %)=(W0−W1)/W0
W0 represents the correct weight of the phthalocyanine not yet being treated, and W1 represents the weight of the substance obtained by filtration (dissolved phthalocyanine compound residue) having been dried.

[4] = Tts of laminated glass sample; conditions: 0.76 mm PVB interlayer with 0.013 g compound per 100 g resin, JIS R3106
Procedure: as §1, §2
By using U-3500 type recording spectrophotometer produced by Hitachi, Ltd. as a measurement instrument, Tts of the laminated glass samples was measured based on JIS R3106 “Testing method for transmittance, reflectance, emissivity, and solar heat gain coefficient of flat glasses”.

[5] = Heat resistance test of heat ray shielding film; conditions: 200 hours at 100° C., absorbance integrated 400 to 900 nm
Procedure: (§7) In the evaluation test, the release film was peeled from the produced heat ray shielding film, then the heat ray shielding film was compressed on a 5 cm×5 cm×3 mm (thickness) glass plate, and a test piece created in this way was used.
as §3, with “test piece” for “laminated glass”
as §4, §5
(§8) E1 represents the spectrum before test, E2 represents the spectrum after test, and Σ represents integration of the values of absorbance.
(§9) The larger the value of ΔE, the greater the spectrum change between before and after the light fastness⋅heat resistance test.

[6] = Light fastness test of heat ray shielding film; conditions: xenon light 200 hours at 550 W/h, absorbance integrated 400 to 900 nm
Procedure: as §7
(§10) For a light fastness test, the absorption spectrum of the test piece was measured using a spectrophotometer (produced by Hitachi, Ltd.: Spectrophotometer U-3500) and adopted as a spectrum before light fastness test. Then, the test piece used for measuring the spectrum before test was irradiated with light for 200 hours at 550 W/h by using a xenon light fastness tester (produced by Toyo Seiki Seisaku-sho, Ltd.: SUNTEST XLS+). The absorption spectrum of the test piece irradiated with light was measured using the spectrophotometer and adopted as a spectrum after light fastness test.
as §4, §5, §8, §9

[7] = Light fastness test of laminated glass; conditions: xenon light 200 hours at 550 W/h, absorbance integrated 400 to 900 nm
Procedure: as §1, §2
as §10, with “laminated glass” for “test piece”
as §4, §5, §6

Row | maximum absorption [1] | gram absorption coefficient [1] | ΔE (%) Heat resistance [2] | Solubility to cyclopentanone (wt %) [3] | Tts [4] | ΔE (%) Heat resistance [5] | ΔE (%) Light fastness [6] | ΔE (%) Light fastness [7] | SMILES
1 | 705.5 nm | 78900 mL/g/cm | 2% | ≥10% wt % | 51.5% | 3% | 3% | 3% | COCCCCc1ccc(CCCCOC)c2c1-c1nc-2nc2[n-]c(nc3nc(nc4[n-]c(n1)c1c(CCCCOC)ccc(CCCCOC)c41)-c1c(CCCCOC)ccc(CCCCOC)c1-3)c1c(CCCCOC)ccc(CCCCOC)c21.[Cu+2] [Specific Example (1)-31]
2 | 734.0 nm | 121000 mL/g/cm | 6% | ≥10% wt % | 53.2% | 6% | 5% | 5% | COCCCCc1ccc(CCCCOC)c2c1-c1nc-2nc2[n-]c(nc3nc(nc4[n-]c(n1)c1c(CCCCOC)ccc(CCCCOC)c41)-c1c(CCCCOC)ccc(CCCCOC)c1-3)c1c(CCCCOC)ccc(CCCCOC)c21.[O]=[V+2] [Specific Example (1)-30]
3 | 733.0 nm | 130000 mL/g/cm | 35% | ≤1% wt % | 53.6% | 31% | 33% | 33% | COCc1ccc(COC)c2c1-c1nc-2nc2[n-]c(nc3nc(nc4[n-]c(n1)c1c(COC)ccc(COC)c41)-c1c(COC)ccc(COC)c1-3)c1c(COC)ccc(COC)c21.[O]=[V+2] [Comparative Example Compound (a), reference compound]

More lines, now with the values behind:

Row | SMILES | maximum absorption [1] | gram absorption coefficient [1] | ΔE (%) Heat resistance [2] | Solubility to cyclopentanone (wt %) [3] | Tts [4] | ΔE (%) Heat resistance [5] | ΔE (%) Light fastness [6] | ΔE (%) Light fastness [7]
4 | CCOCCCCc1ccc(CCCCOCC)c2c1-c1nc-2nc2[n-]c(nc3nc(nc4[n-]c(n1)c1c(CCCCOCC)ccc(CCCCOCC)c41)-c1c(CCCCOCC)ccc(CCCCOCC)c1-3)c1c(CCCCOCC)ccc(CCCCOCC)c21.[O]=[V+2] [Specific Example (1)-33] | 734.0 nm | 119000 mL/g/cm | 3% | ≥10% wt % | 51.5% | 2% | 3% | 2%
5 | Fc1ccccc1OCCCCc1ccc(CCCCOc2ccccc2F)c2c1-c1nc-2nc2[n-]c(nc3nc(nc4[n-]c(n1)c1c(CCCCOc5ccccc5F)ccc(CCCCOc5ccccc5F)c41)-c1c(CCCCOc4ccccc4F)ccc(CCCCOc4ccccc4F)c1-3)c1c(CCCCOc3ccccc3F)ccc(CCCCOc3ccccc3F)c21.[O]=[V+2] [Specific Example (1)-43] | 735.5 nm | 78900 mL/g/cm | 4% | ≥10% wt % | 52% | 3% | 2% | 3%
6 | [O]=[V+2].c1ccc(OCCCCc2ccc(CCCCOc3ccccc3)c3c2-c2nc-3nc3[n-]c(nc4nc(nc5[n-]c(n2)c2c(CCCCOc6ccccc6)ccc(CCCCOc6ccccc6)c52)-c2c(CCCCOc5ccccc5)ccc(CCCCOc5ccccc5)c2-4)c2c(CCCCOc4ccccc4)ccc(CCCCOc4ccccc4)c32)cc1 [Specific Example (1)-37] | 735.5 nm | 86300 mL/g/cm | 3% | ≥10% wt % | 52.6% | 3% | 5% | 3%
7 | COc1cccc(OCCCCc2ccc(CCCCOc3cccc(OC)c3)c3c2-c2nc-3nc3[n-]c(nc4nc(nc5[n-]c(n2)c2c(CCCCOc6cccc(OC)c6)ccc(CCCCOc6cccc(OC)c6)c52)-c2c(CCCCOc5cccc(OC)c5)ccc(CCCCOc5cccc(OC)c5)c2-4)c2c(CCCCOc4cccc(OC)c4)ccc(CCCCOc4cccc(OC)c4)c32)c1.[O]=[V+2] [Specific Example (1)-39] | 735.5 nm | 74000 mL/g/cm | 3% | ≥10% wt % | 52.7% | 3% | 4% | 4%
8 | CC(C)(C)c1ccc(OCCCCc2ccc(CCCCOc3ccc(C(C)(C)C)cc3)c3c2-c2nc-3nc3[n-]c(nc4nc(nc5[n-]c(n2)c2c(CCCCOc6ccc(C(C)(C)C)cc6)ccc(CCCCOc6ccc(C(C)(C)C)cc6)c52)-c2c(CCCCOc5ccc(C(C)(C)C)cc5)ccc(CCCCOc5ccc(C(C)(C)C)cc5)c2-4)c2c(CCCCOc4ccc(C(C)(C)C)cc4)ccc(CCCCOc4ccc(C(C)(C)C)cc4)c32)cc1.[O]=[V+2] [Specific Example (1)-42] | 734.5 nm | 71000 mL/g/cm | 3% | ≥10% wt % | 52.3% | 4% | 4% | 2%
9 | COc1cccc(OCCCCc2ccc(CCCCOc3cccc(OC)c3)c3c2-c2nc-3nc3[n-]c(nc4nc(nc5[n-]c(n2)c2c(CCCCOc6cccc(OC)c6)ccc(CCCCOc6cccc(OC)c6)c52)-c2c(CCCCOc5cccc(OC)c5)ccc(CCCCOc5cccc(OC)c5)c2-4)c2c(CCCCOc4cccc(OC)c4)ccc(CCCCOc4cccc(OC)c4)c32)c1.[Cu+2] [Specific Example (1)-40] | 706.5 nm | 67800 mL/g/cm | 2% | ≥10% wt % | 52% | 3% | 2% | 2%
10 | COc1cccc(OC)c1OCCCCc1ccc(CCCCOc2c(OC)cccc2OC)c2c1-c1nc-2nc2[n-]c(nc3nc(nc4[n-]c(n1)c1c(CCCCOc5c(OC)cccc5OC)ccc(CCCCOc5c(OC)cccc5OC)c41)-c1c(CCCCOc4c(OC)cccc4OC)ccc(CCCCOc4c(OC)cccc4OC)c1-3)c1c(CCCCOc3c(OC)cccc3OC)ccc(CCCCOc3c(OC)cccc3OC)c21.[Cu+2] [Specific Example (1)-45] | 706.5 nm | 60100 mL/g/cm | 4% | ≥10% wt % | 52.5% | 3% | 2% | 3%
